Some test systems named below: MOLT-4 leukemia; SK-MEL-5 melanoma; NCI/ADR-RES ovarian; KM12 colon; PC-3 prostate; HCT-15 colon; HT29 colon; UO-31 renal; NCI-H23 lung; RXF 393 renal.
What all share (assay): NCI anticancer screen, dose series, 48 h

Several values for one entry are separate records, joined by “and”; a condition that tells them apart may be missing. Identical values can stand only once.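 96-well plates; 48 h exposure; 5 concentrations. Endpoints by linear interpolation between flanking doses. Not reached: highest tested concentration assigned. The concentration for 50% growth inhibition is given as GI50. Definition used: TGI = concentration required for complete inhibition of growth.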 Some results are limits rather than exact numbers.

For `CCOC(=O)c1c(Cl)c2c(n1Cc1ccccc1)-c1oncc1CCC2`, the GI50 in the experiment with MOLT-4 leukemia was 3.58 µM; in the experiment with SK-MEL-5 melanoma, 3.53 µM; in the experiment with NCI/ADR-RES ovarian, 2.83 µM; in the experiment with KM12 colon, 3.71 µM; in the experiment on PC-3 prostate, 3.17 µM; in the experiment on HCT-15 colon it was 3.39 µM. The GI50 in the experiment with HT29 colon is 2.95 µM. For the same compound, the TGI in the experiment on MOLT-4 leukemia, with SK-MEL-5 melanoma, with NCI/ADR-RES ovarian, with KM12 colon, in the experiment on PC-3 prostate and with HCT-15 colon was over 100 µM each time. This compound also yielded a TGI in the experiment with HT29 colon of 8.52 µM.

As to `CC(C)(C)OC(=O)CC(NC(=O)OCc1ccccc1)NC(=O)OC(C)(C)C` (centres undefined), the GI50 was 23.5 µg/mL in the experiment with MOLT-4 leukemia; 27 µg/mL with UO-31 renal; 33.5 µg/mL with NCI/ADR-RES ovarian; 40.3 µg/mL with KM12 colon; 56 µg/mL in the experiment with HCT-15 colon; 39.1 µg/mL in the experiment with NCI-H23 lung. In the experiment on MOLT-4 leukemia, this compound displayed a TGI of 55.6 µg/mL.

For `O=c1c(-c2ccccc2)c(SCCCN2CCCCC2)n(-c2ccccc2)c(=S)n1-c1ccccc1`, the TGI in the experiment with RXF 393 renal was 27.7 µM; in the experiment with MOLT-4 leukemia, 47 µM; in the experiment with SK-MEL-5 melanoma, 30.8 µM; with NCI/ADR-RES ovarian, 43.8 µM; with KM12 colon, 41.6 µM; with PC-3 prostate, 39.4 µM. Also, the TGI amounted to 38.7 µM with HCT-15 colon and 42.9 µM in the experiment on NCI-H23 lung.

With `C=CCN1C(=O)NC(=O)/C(=C/c2c3ccccc3cc3ccccc23)C1=O`, the TGI is 34.6 µM in the experiment on RXF 393 renal; 48.9 µM with MOLT-4 leukemia; over 10 µM in the experiment with SK-MEL-5 melanoma; 37 µM with UO-31 renal; 31.8 µM in the experiment with KM12 colon; 37.9 µM in the experiment on HT29 colon. In the experiment with NCI-H23 lung, this compound yielded a TGI of over 10 µM.

In the case of `O=c1c2ccccc2nc2n1CCc1c-2[nH]c2ccccc12`, the TGI was 34.5 µM in the experiment on RXF 393 renal; over 100 µM with MOLT-4 leukemia; 28.6 µM in the experiment on SK-MEL-5 melanoma; 28.1 µM in the experiment with UO-31 renal; 61 µM in the experiment with NCI/ADR-RES ovarian; 40.9 µM in the experiment with PC-3 prostate. In the experiment on NCI-H23 lung, this compound displayed a TGI of 37.4 µM.

Consider `C/C=C(/CCC1NCCc2c1[nH]c1ccccc21)[Si](C)(C)C` (centres undefined), for which the TGI is > 100 µM and 11.8 µM with SK-MEL-5 melanoma; > 100 µM and 17.3 µM in the experiment on UO-31 renal; > 100 µM and 12.1 µM in the experiment with KM12 colon; 18.5 µM with HCT-15 colon; > 100 µM and 25.5 µM in the experiment on NCI-H23 lung. Moreover, the GI50 in the experiment with NCI-H23 lung is 87.1 µM and 11.1 µM.

`NCCCCNOCCCN`: the TGI with RXF 393 renal, in the experiment on MOLT-4 leukemia, with SK-MEL-5 melanoma, in the experiment on UO-31 renal, in the experiment with NCI/ADR-RES ovarian and in the experiment on KM12 colon was over 100 µM throughout. Besides, the TGI in the experiment on PC-3 prostate, with HT29 colon and with NCI-H23 lung was over 100 µM each time.

On to `O=c1[nH]c2ccccc2c2oc3ccccc3c12`, for which the TGI in the experiment on RXF 393 renal, in the experiment with MOLT-4 leukemia, in the experiment with SK-MEL-5 melanoma, in the experiment on UO-31 renal, with NCI/ADR-RES ovarian and in the experiment on KM12 colon was over 100 µM throughout. For the same compound, the TGI in the experiment with PC-3 prostate, in the experiment with HCT-15 colon, with HT29 colon and with NCI-H23 lung was over 100 µM in each case.

Regarding `O=[N+]([O-])c1ccc(N/N=C\c2cc(Br)ccc2O)nc1`, the GI50 in the experiment on RXF 393 renal was 2.17 µM; in the experiment with MOLT-4 leukemia, 0.347 µM; in the experiment on SK-MEL-5 melanoma, 1.32 µM; in the experiment with UO-31 renal, 0.376 µM; in the experiment on KM12 colon, 1.23 µM; with PC-3 prostate it was 1.67 µM. Moreover, the GI50 in the experiment with HCT-15 colon is 0.437 µM; with HT29 colon, 4.27 µM; in the experiment with NCI-H23 lung, 1.23 µM. For the same compound, the TGI in the experiment with RXF 393 renal was 9.95 µM; in the experiment on MOLT-4 leukemia it was 23.9 µM; with SK-MEL-5 melanoma it was 10.9 µM; in the experiment with UO-31 renal it was 2.01 µM; in the experiment with KM12 colon it was 17.5 µM; with PC-3 prostate, over 100 µM. Further, the TGI in the experiment on HCT-15 colon is over 100 µM; in the experiment with HT29 colon, over 100 µM; in the experiment on NCI-H23 lung it was 10.9 µM.

On to `NC(Cc1cc(I)c(Oc2ccc(O)c(I)c2)c(I)c1)C(=O)O` (centres undefined), for which the TGI with RXF 393 renal, in the experiment with SK-MEL-5 melanoma, in the experiment on UO-31 renal, in the experiment on NCI/ADR-RES ovarian, in the experiment with KM12 colon and in the experiment with PC-3 prostate was over 100 µM throughout. Besides, the TGI in the experiment with HCT-15 colon, in the experiment on HT29 colon and with NCI-H23 lung was over 100 µM throughout.

In the case of `O=S1(=O)C(=C(c2ccccc2)c2ccccc2)S(=O)(=O)c2ccccc21`, the TGI in the experiment with RXF 393 renal, in the experiment on MOLT-4 leukemia, in the experiment on SK-MEL-5 melanoma, in the experiment on UO-31 renal, with NCI/ADR-RES ovarian and in the experiment on KM12 colon was over 100 µM in each case. In addition, the TGI in the experiment with HCT-15 colon, with HT29 colon and in the experiment with NCI-H23 lung was over 100 µM each time.

The record behind these values is PubChem BioAssay (NCI).
